Data: US20260207633A1, “COMPOSITION COMPRISING POLAR LIPIDS AND METHOD OF MAKING SAME” (VAXA TECHNOLOGIES LTD, priority 2021, published 2026)

Key:
[1] = tested on: individuals with insomnia; settings: cited from earlier work
[2] = tested on: participants with poor sleeping quality (PSQI 11-13); assay: Sleep quality tracked monthly with the Pittsburgh Sleep Quality Index (PSQI), 6 groups of 3 participants; assay type: in vivo, human; settings: for PSQI M3: global PSQI score at month 3; for PSQI M3 / PSQI M4: With CBD (daily dosage per group, the 2nd table r16-r22); for PSQI M4: global PSQI score at month 4; for ΔPSQI (%): improvement of PSQI from M0 to M4
Procedure: Some experiment showing the effect of the combination of CBD and four different omega-3 compounds (Fish Oil (Non-polar DHA+EPA), Fish oil (Non-polar EPA), Schizochytrium Oil (Non-Polar DHA), Nannochloropsis Oil (polar EPA)) were conducted. Daily dosage of omega 3 (DHA and/or EPA) was […].
Materials: CBD: Fish oil (non-polar DHA+EPA), Schizochytrium Oil (non-polar DHA), Nannochloropsis Oil (polar-EPA), Fish oil (non-polar EPA).
Experimental Design: Sleep quality was the measured in this study, as an efficacy indication. The experiment included 6 groups (3 participants per group) 8 women and 10 men, with similar Pittsburgh Sleep Quality Index (PSQI) rating (11-13), indicating poor sleeping quality. The average age for the participants was 37.2. All 18 participants completed sleep assessments at the onset of CBD treatment and at the monthly follow-ups.
All participants were given CBD and/or Omega 3 every evening, after dinner, per table 1 below. Sleep quality was tracked on a monthly basis, for a period of up to 4 months, using the PSQI. This Index is a self-report measure that assesses the quality of sleep during a 1-month period. […] The PSQI measures several different aspects of sleep, offering seven component scores and one composite score. The component scores consist of subjective sleep quality, sleep latency (i.e., how long it takes to fall asleep), sleep duration, habitual sleep efficiency (i.e., the percentage of time in bed that one is asleep), sleep disturbances, use of sleeping medication, and daytime dysfunction.
Each item is weighted on a 0-3 interval scale. The global PSQI score was calculated by totaling the seven component scores, providing an overall score ranging from 0 to 21, where lower scores denote a healthier sleep quality. A higher number indicates more sleep-related concerns. A score of 5 or greater indicates a “poor sleeper”.

SMILES	frequency of arousals during the night ([1]; high-dose (160 mg/day) CBD)	total sleep time ([1]; high-dose (160 mg/day) CBD)	wakefulness ([1]; low-dose CBD)	effect on PSQI score / sleep quality, in words ([2]; comparison between groups)	PSQI M3 [2]	PSQI M4 [2]	ΔPSQI (%) [2] [%]	Sedation ([2]; sedation effect Y/N during CBD treatment, listed as High-dose CBD)	improvement of PSQI score, months 3-4 ([2]; months with CBD)
C=C(C)[C@@H]1CCC(C)=C[C@H]1c1c(O)cc(CCCCC)cc1O [CBD, Cannabidiol]	decreased the frequency of arousals during the night	increased total sleep time	increased wakefulness	–	–	–	–	–	–
C=C(C)[C@@H]1CCC(C)=C[C@H]1c1c(O)cc(CCCCC)cc1O [Group A, Cannabidiol]	–	–	–	more efficient that low-dose CBD in improving PSQI score	6.7	4.6	62	had a sedation effect	–
C=C(C)[C@@H]1CCC(C)=C[C@H]1c1c(O)cc(CCCCC)cc1O [Group B, Cannabidiol]	–	–	–	–	11.3	9.3	24	–	~ 18%
